Experimental data published in patent publication US20150018376A1, “PYRIMIDIN-4-YL)OXY)-1H-INDOLE-1-CARBOXAMIDE DERIVATIVES AND USE THEREOF” (NOVARTIS AG, priority 2013, published 2015).

What was measured:
[1] = Stability of crystalline form; assay type: physicochemical; conditions: HCl salt
Source text: Crystalline form B of the HCl salt of N-(1-methyl-5-(trifluoromethyl)-1H-pyrazol-3-yl)-5-((6-((methylamino)methyl)pyrimidin-4-yl)oxy)-1H-indole-1-carboxamide was obtained using the same procedure as in Example 5 above.

KDR (GST-KDR(807-1356)) = target: T1, KDR (GST-KDR(807-1356)) (Homo sapiens, UniProt P35968); assay: KDR protein kinase activity, LanthaScreen TR-FRET; assay type: biochemical; conditions: 2 μM ATP, 1 hour incubation
T1 construct: GST-KDR(807-1356), internally produced recombinant protein; GST (N); made in house
T1 sequence (P35968 807-1356): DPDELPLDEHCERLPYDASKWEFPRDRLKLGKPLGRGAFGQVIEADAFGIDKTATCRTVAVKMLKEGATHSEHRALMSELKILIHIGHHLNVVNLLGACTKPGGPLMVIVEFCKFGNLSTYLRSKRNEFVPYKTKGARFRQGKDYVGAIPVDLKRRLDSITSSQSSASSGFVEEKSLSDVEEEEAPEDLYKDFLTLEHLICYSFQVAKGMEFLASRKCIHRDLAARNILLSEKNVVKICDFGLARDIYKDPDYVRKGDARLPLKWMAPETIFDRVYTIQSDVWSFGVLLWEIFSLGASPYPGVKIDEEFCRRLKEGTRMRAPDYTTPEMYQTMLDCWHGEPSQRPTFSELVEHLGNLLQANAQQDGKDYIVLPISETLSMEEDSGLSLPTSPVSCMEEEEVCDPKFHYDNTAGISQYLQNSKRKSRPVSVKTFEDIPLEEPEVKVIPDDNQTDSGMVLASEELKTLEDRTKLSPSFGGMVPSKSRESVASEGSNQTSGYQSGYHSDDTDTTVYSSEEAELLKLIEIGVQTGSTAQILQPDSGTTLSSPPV
Description: A generic assay set-up has been run at room temperature on a liquid handling robot. To the assay plates containing 50 nL compound or control solutions, 4.5 μL of ATP mix (20 mM Tris-HCl pH7.4, 1 mM DTT, 0.025% Tween20, 0.01 mM Na3VO4, 10 mM MgCl2, 1 mM MnCl2, and 4 μM ATP) were added per well. Subsequently, 4.5 μL of enzyme-substrate mix (20 mM Tris-HCl pH7.4, 1 mM DTT, 0.025% Tween20, 0.01 mM Na3VO4, 10 mM MgCl2, 1 mM MnCl2, 0.5% BSA, 100 nM fluorescein labeled poly(EAY), and 0.76 nM KDR (GST-KDR(807-1356), internally produced recombinant protein) were added.
The final reaction volume is 9.05 μL with final reagent concentrations of 20 mM Tris-HCl pH7.4, 1 mM DTT, 0.025% Tween20, 0.01 mM Na3VO4, 10 mM MgCl2, 1 mM MnCl2, including a generic concentration of 2 μM ATP, 50 nM of substrate fluorescein labeled poly(EAY), and 0.38 nM enzyme.
After 1 hour of incubation the kinase reactions have been stopped by the addition of 4.5 μL of stop solution (20 mM Tris-HCl pH7.4, 1 mM DTT, 0.025% Tween20, 0.01 mM Na3VO4, 50 mM EDTA) immediately followed by 4.5 μL of antibody solution (20 mM Tris-HCl pH7.4, 1 mM DTT, 0.025% Tween20, 0.01 mM Na3VO4, 1.72 μg/ml Tb-PY20).
After an incubation time of 45 min in the dark, the plates were transferred into a fluorescence reader and counted in time resolved fluorescence mode (settings according to the reagent supplier's recommendation). The effect of compound on the enzymatic activity was obtained from end point measurement.

rabbit hepatocytes = assay: Hepatocyte viability during incubation (ViaCount assay); assay type: cell-based; conditions: 10 μmol/L, percent viable cells relative to total cells
Description: (§1) After thawing the cryopreserved hepatocytes, the viable cells were enriched by centrifugation in HepatoZYME cell culture medium (Gibco Invitrogen). For this purpose, the cells were added to 45 mL of a 37° C. warm HepatoZYME, and centrifuged at room temperature, at 50 g for 5 min. The supernatant containing dead cells was discarded and the cells in the pellet were re-suspended in HepatoZYME.
(§2) The viability of the re-suspended hepatocytes was determined by a Guava EasyCyte™ Mini system using the ViaCount® assay as described by the supplier (Guava Technologies, Hayward, Calif., USA). After cell counting, the cell concentration was adjusted to approx. 1·10^6 viable cells/mL by adding HepatoZYME. Subsequently, the incubations were started by adding [^14C] N-(1-methyl-5-(trifluoromethyl)-1H-pyrazol-3-yl)-5-(6-((methylamino)methyl)pyrimidin-4-yloxy)-1H-indole-1-carboxamide and non-labeled N-(1-methyl-5-(trifluoromethyl)-1H-pyrazol-3-yl)-5-(6-((methylamino)methyl)pyrimidin-4-yloxy)-1H-indole-1-carboxamide as a solution in DMSO. The final concentration of DMSO in the incubations was 0.1% (v/v).
(§3) To check the chemical stability of [^14C] N-(1-methyl-5-(trifluoromethyl)-1H-pyrazol-3-yl)-5-(6-((methylamino)methyl)pyrimidin-4-yloxy)-1H-indole-1-carboxamide under the incubation conditions, the compound was incubated at a concentration of 10 μmol/L in HepatoZYME without hepatocytes. A second series of control incubations was performed with hepatocytes of all species in the absence of the test compound to investigate the effect of the latter on the viability. These experiments were performed in a 12×6 mL MultiWell™ plate (Art. 393503, Beckton Dickinson).
(§4) The incubations were performed at 37° C. under a humidified atmosphere of 95% relative humidity and 5% CO2 in a Heraeus incubator/cytoperm (Kendro Laboratory Products AG, Zürich, Switzerland). During the incubations, the plates and flasks were shaken at 300 strokes per minute. The viability of the hepatocytes was determined after 6 h (end of incubation).

rat hepatocytes = assay: as above; assay type: cell-based; conditions: 10 μmol/L, percent viable cells relative to total cells
Description: as §1, §2, §3, §4

monkey hepatocytes = assay: as above; assay type: cell-based; conditions: 10 μmol/L, percent viable cells relative to total cells
Description: as §1, §2, §3, §4

human hepatocytes = assay: as above; assay type: cell-based; conditions: 10 μmol/L, percent viable cells relative to total cells
Description: as §1, §2, §3, §4

[2] = Control incubations in the absence of hepatocytes or liver microsomes (chemical stability); assay type: in vitro ADME; conditions: 10 μmol/L in HepatoZYME without hepatocytes (6 h) or buffer without microsomes (60 min), 37° C.
Description: as §3
Microsomal incubations for metabolite profiles were performed at 10 μmol/L of [^14C] N-(1-methyl-5-(trifluoromethyl)-1H-pyrazol-3-yl)-5-(6-((methylamino)methyl)pyrimidin-4-yloxy)-1H-indole-1-carboxamide (approx. 50% radiolabeled) with one time point investigated (60 min). Incubations were performed at 37° C. in 0.1 mol/L sodium phosphate buffer pH 7.4. The final concentrations in the incubation cocktail were: 4 mmol/L UDPGA (Sigma-Aldrich), 1 mmol/L β-NADPH (Sigma-Aldrich), 5 mmol/L MgCl2, and 60 μg alamethicin (Sigma-Aldrich) per mg microsomal protein. The system was left to incubate for 10 min before adding the test compound to allow the pore formation with the alamethicin. The metabolic reaction was started by the addition of [^14C] […]

[3] = system: hepatocytes from rat, rabbit, monkey, and human; assay: Hepatocyte viability during incubation, all species summarised; assay type: cell-based; conditions: 10 μmol/L, range over four species; initially 70-93%; controls without compound 4-21%
Description: as §1
as §2, with “(v/v). […]” for “(v/v).”
The incubations were performed at 37° C. under a humidified atmosphere of 95% relative humidity and 5% CO2 in a Heraeus incubator/cytoperm (Kendro Laboratory Products AG, Zürich, Switzerland). […] The viability of the hepatocytes was determined after 6 h (end of incubation).

With `CNCc1cc(Oc2ccc3c(ccn3C(=O)Nc3cc(C(F)(F)F)n(C)n3)c2)ncn1` [Form B, N-(1-methyl-5-(trifluoromethyl)-1H-pyrazol-3-yl)-5-((6-((methylamino)methyl)pyrimidin-4-yl)oxy)-1H-indole-1-carboxamide] the “stability of the crystalline form” value [1] was “transient form that converts back to Form A”.

For `Cn1nc(NC(=O)n2ccc3cc(Oc4cc(C(N)=O)ncn4)ccc32)cc1C(F)(F)F` [Example 2, 5-((6-Carbamoylpyrimidin-4-yl)oxy)-N-(1-methyl-5-(trifluoromethyl)-1H-pyrazol-3-yl)-1H-indole-1-carboxamide], the IC50 (KDR (GST-KDR(807-1356))) was 20 nM.

Work on `Cn1nc(NC(=O)n2ccc3cc(Oc4cc(CN)ncn4)ccc32)cc1C(F)(F)F` [Example 3, 5-(6-(aminomethyl)pyrimidin-4-yloxy)-N-(1-methyl-5-(trifluoromethyl)-1H-pyrazol-3-yl)-1H-indole-1-carboxamide] yielded an IC50 (KDR (GST-KDR(807-1356))) of under 1 nM.

Compound `Cn1nc(NC(=O)n2ccc3cc(Oc4cc(/C=[N+](/C)[O-])ncn4)ccc32)cc1C(F)(F)F` [Example 1, (Z)-N-((6-((1-((1-methyl-5-(trifluoromethyl)-1H-pyrazol-3-yl)carbamoyl)-1H-indol-5-yl)oxy)pyrimidin-4-yl)methylene)methanamine oxide] has an IC50 (KDR (GST-KDR(807-1356))) of under 1 nM.

For `CNCc1cc(Oc2ccc3c(ccn3C(=O)Nc3cc(C(F)(F)F)n(C)n3)c2)ncn1` [[^14C] N-(1-methyl-5-(trifluoromethyl)-1H-pyrazol-3-yl)-5-(6-((methylamino)methyl)pyrimidin-4-yloxy)-1H-indole-1-carboxamide], the “Viability at 6 h” value (rabbit hepatocytes) was 8%, the “Viability at 6 h” value (rat hepatocytes) was 22% and the “Viability at 6 h” value (monkey hepatocytes) was 42%. The “Viability at 6 h” value (human hepatocytes) was 25%, the “chemical stability in the incubation media” value [2] was “confirmed the stability of the compound” and the “viability of the hepatocytes after 6 hours” value [3] was 8-42%.
